Results on three compounds are retold here after ChEMBL document CHEMBL3860075, “Synthesis, characterization, and evaluation of (E)-methyl 2-((2-oxonaphthalen-1(2H)-ylidene)methylamino)acetate as a biological agent and an anion sensor” (Bioorg Med Chem, 2016).

≈ marks a conversion by molar mass, not a printed value. Calls of active or inactive are those of the source. No cut-off for these calls is given here. Where only a bound is given, the exact number is not on record here.

One series deals with Staphylococcus aureus. Briefly: Antimicrobial activity against Staphylococcus aureus ATCC 25923 after 24 hrs by broth microdilution assay. Type of series: functional. The conditions noted are these: ATCC 25923, 24 h. A general note: Dilution methods test growth across graded concentrations, often in twofold steps.
For a further series, the system named is Enterococcus faecalis. As to the kind of experiment: Antimicrobial activity against Enterococcus faecalis ATCC 29212 after 24 hrs by broth microdilution assay. Type of series: functional. The conditions noted are these: ATCC 29212, 24 h.
The test system of a further series is Bacillus spizizenii. Briefly: Antimicrobial activity against Bacillus subtilis ATCC 6633 after 24 hrs by broth microdilution assay. The conditions noted are these: ATCC 6633, 24 h. The format is functional.
The subject of series [1] is Escherichia coli. As to the kind of experiment: Antimicrobial activity against Escherichia coli ATCC 25922 after 24 hrs by broth microdilution assay. Type of series: functional. The conditions noted are these: ATCC 25922, 24 h.
Series [2] has as its system Escherichia coli. Briefly: Antimicrobial activity against Escherichia coli ATCC 35218 after 24 hrs by broth microdilution assay. Type of series: functional. The conditions noted are these: ATCC 35218, 24 h.
A further series relates to Pseudomonas aeruginosa. As to the kind of experiment: Antimicrobial activity against Pseudomonas aeruginosa ATCC 254992 after 24 hrs by broth microdilution assay. The conditions noted are these: ATCC 254992, 24 h. Type of series: functional.
The next series relates to Proteus vulgaris. Briefly: Antimicrobial activity against Proteus vulgaris ATCC 13315 after 24 hrs by broth microdilution assay. The format is functional. The conditions noted are these: ATCC 13315, 24 h.
A further series concerns Candida albicans. As to the kind of experiment: Antimicrobial activity against Candida albicans ATCC 60193 after 24 hrs by broth microdilution assay. The format is functional. The conditions noted are these: ATCC 60193, 24 h.
A further series relates to Candida tropicalis. Briefly: Antimicrobial activity against Candida tropicalis ATCC 13803 after 24 hrs by broth microdilution assay. The format is functional. The conditions noted are these: ATCC 13803, 24 h.
For series [3], the species on record is Bos taurus. Briefly: Binding affinity to calf thymus DNA assessed as formation of intense band at 260 nanometer at 3 10^-5M after 5 mins by UV-visible spectroscopic analysis.
For series [4], the species on record is Bos taurus. As to the kind of experiment: Binding affinity to calf thymus DNA assessed as bathochromism at 3 10^-5M after 5 mins by UV-visible spectroscopic analysis.
Series [5] relates to Escherichia coli. As to the kind of experiment: Induction of oxidative cleavage of Escherichia coli supercoiled pBR322 DNA assessed as increase in nicked circular form at 25 uM after 3 hrs in presence of H2O2 by agarose gel electrophoretic analysis.
For series [6], the system named is Escherichia coli. As to the kind of experiment: Induction of hydrolytic cleavage of Escherichia coli supercoiled pBR322 DNA assessed as increase in nicked circular form at 200 uM after 3 hrs by agarose gel electrophoretic analysis.
Series [7] concerns Salmonella typhimurium. Briefly: Genotoxicity in Salmonella typhimurium TA98 at 0.5 to 500 ppm per plate in absence of S9 fraction by Ames test. Type of series: toxicity, organism-based. The conditions noted are these: salmonella enterica subsp. enterica serovar typhimurium. For orientation: The Ames test detects mutagens through reverse mutation in bacteria.
Series [8] relates to Salmonella typhimurium. Briefly: Genotoxicity in Salmonella typhimurium TA100 at 0.5 to 500 ppm per plate in absence of S9 fraction by Ames test. Type of series: toxicity, organism-based. The conditions noted are these: salmonella enterica subsp. enterica serovar typhimurium.
Series [9] can be described thus: Binding affinity to cyanide anion assessed as disappearance of peak at 430 nanometer at 5 10^-6M by UV-visible spectroscopic analysis.
A short description of series [10]: Binding affinity to cyanide anion assessed as compound color change from colorless to yellow at compound:anion ratio of 1:1 under natural light by colorimetric method.
Series [11] can be described thus: Binding affinity to 0.5 equiv tetrabutylamonium fluoride anion assessed as decrease in N-H proton intensity by 1H NMR method.
A short description of series [12]: Binding affinity to 1 equiv tetrabutylamonium fluoride anion assessed as disappearance of peak by 1H NMR method.
Series [13] can be described thus: Binding affinity to cyanide anion assessed as compound color change from colorless to yellow at compound:anion ratio of 1:1 under UV light by colorimetric method.

A word on the MIC: it is the lowest concentration found to suppress growth. Low readings indicate a more susceptible organism, high ones a less susceptible organism. As to `COC(=O)CN/C=C1/C(=O)C=Cc2ccccc21`, the minimal inhibitory concentration (MIC) with Staphylococcus aureus worked out at 128 µg/mL (≈ 526 µM); in the series with Enterococcus faecalis it was 256 µg/mL (≈ 1050 µM); in the series with Bacillus spizizenii, 128 µg/mL (≈ 526 µM); in the series with Escherichia coli [1] it was 256 µg/mL (≈ 1050 µM); in the series with Escherichia coli [2], 256 µg/mL (≈ 1050 µM); in the series on Pseudomonas aeruginosa it was 128 µg/mL (≈ 526 µM). Moreover, the MIC in the series on Proteus vulgaris turned out to be 256 µg/mL (≈ 1050 µM); against Candida albicans, 128 µg/mL (≈ 526 µM); in the series on Candida tropicalis, 128 µg/mL (≈ 526 µM). Further, the outcome (in the series listed under Bos taurus [3]; in the series on Escherichia coli [5]; in the series on Escherichia coli [6]; in series [9]; in series [10]; in series [11]) was Active. Further, the outcome in series [12] and in [13] was Active. Further, the figures for the Activity in the series filed under Bos taurus [4], in the series on Salmonella typhimurium [7] and in the series with Salmonella typhimurium [8] were 1 to 4 nm, “Non-Toxic” and more than 40%, respectively.
As for `OC(Cn1cncn1)(Cn1cncn1)c1ccc(F)cc1F` [FLUCONAZOLE], in the series on Candida tropicalis, the MIC worked out at 32 µg/mL (≈ 104 µM).
Turning to `CC1(C)S[C@@H]2[C@H](NC(=O)[C@H](N)c3ccccc3)C(=O)N2[C@H]1C(=O)O` [AMPICILLIN], the MIC was found to be 2 µg/mL (≈ 5.72 µM) against Enterococcus faecalis, 1 µg/mL (≈ 2.86 µM) against Bacillus spizizenii, 2 µg/mL (≈ 5.72 µM) with Pseudomonas aeruginosa and 2 µg/mL (≈ 5.72 µM) in the series with Proteus vulgaris.
